Test results as given in patent publication US20050043262A1, “Novel specific inhibitor of the cyclin kinase inhibitor p21Waf1/Cip1 and methods of using the inhibitor” (priority 2000, published 2005).

What was measured:
cyclin D1/cdk 4 = assay: Cyclin D1 immunoprecipitation / cdk 4 immunoblot in A10 VSM cells; type: cell-based, rat; conditions: PDGF-BB 30 ng/ml, all times
Description: (§1) Cells were transfected with p21^Waf1/Cip1 antisense (SEQ. ID NO.:1) or sense oligodeoxynucleotide (SEQ. ID NO.:2), allowed to grow overnight in serum-free media. After overnight incubation in serum-free medium, the cells were stimulated with PDGF-BB (30 ng/ml) for the times indicated. The cells were subsequently immunoprecipitated with either cyclin D1 or cyclin E and immunoblotted with cdk 4 or cdk 2, respectively.

cyclinD/cdk4 = assay: Cyclin D1 immunoprecipitation / cdk4 immunoblot in A431 cells; type: cell-based, human; conditions: PDGF-BB 30 ng/ml
Description: Cyclin/cdk interactions occur after growth factor stimulation and serve to integrate such responses with the CKIs and transmit them to the Rb/E2F systems, which leads to mitogenic signal transmission. The cyclin D1/cdk 4 interaction occurs early after growth factor stimulation (reviewed in (Arellano and Moreno, 1997 Int. J. Biochem. Cell Biol., 29, p. 559-573)), while the cyclinE/cdk2 interaction occurs late in G1 and is thought to have a role in triggering the actual onset of DNA replication after the cells have passed the restriction point (reviewed in (Sherr and Roberts, 1995: Genes Dev., 9, p. 1149-1163)). A431 cells were transfected with p21^Waf1/Cip1 antisense (SEQ. ID NO.:1) or sense (SEQ. ID NO.:2) oligodeoxynucleotide, allowed to grow overnight in serum-free media, and then stimulated for various times with PDGF-BB. The cells were subsequently immunoprecipitated with either cyclinD1 or cyclinE and immunoblotted with cdk4 or cdk2, respectively. A lysate sample, showing the mobility of the immunoprecipitated cdks, confirmed the identity of the cdks. A431 cells were transfected with antisense (SEQ. ID NO.:1) or sense p21^Waf1/Cip1 (SEQ. ID NO.:2) oligonucleotides. […]

cyclin E/cdk 2 = assay: Cyclin E immunoprecipitation / cdk 2 immunoblot in A10 VSM cells; type: cell-based, rat; conditions: PDGF-BB 30 ng/ml
Description: as §1

T47D cells = assay: [3H]thymidine incorporation in T47D cells; type: cell-based, human; conditions: 200 nM, serum 24 hours
Description: Cell Culture and DNA Synthesis: T47D (ductal carcinoma) and MCF7 (adenocarcinoma) human breast cancer cell lines were obtained from the American Type Culture Collection. All cell lines were maintained according to vendors' recommendations. The cells were growth arrested by placing them in serum-free quiescence media and exposed to 10% serum-containing media as indicated. [^3H]Thymidine incorporation was assessed as described previously (Weiss, R. H., and Nuccitelli, R., J. Biol. Chem., 267: 5608-5613, 1992).
Apoptotic cells will not incorporate thymidine into DNA during S phase, but [^3H]thymidine incorporation experiments will not distinguish between G1→S arrest and apoptosis. Serum-starved cells were transfected with 200 nM antisense p21 and control ODN, stimulated with serum-containing media, and examined for their ability to incorporate [^3H]thymidine into DNA. […] Antisense p21 attenuates [^3H]thymidine incorporation. MCF7 and T47D cells were grown to confluence, serum starved for 24 hours, and lipofected with antisense p21 (AS) or control (SC) ODN at the concentrations indicated (in nM). […] Serum was added for 24 hours, and the cells were incubated with [^3H]thymidine for the last 6 hours. DNA synthesis was assessed by [^3H]thymidine incorporation and is expressed as mean +SD of 3 wells/data point. *, P <0.05 compared with antisense p21 ODN transfection. […]

MCF7 cells = assay: Nuclear morphology (Hoechst 33258) in MCF7 cells; type: cell-based, human; conditions: serum stimulated 24 hours after lipofection
Description: Evaluation of Nuclear Morphology: Cells were seeded in 6-well culture dishes and treated with ODNs as described. The cells were then immersed in methanol for at least 10 min. Cells were stained in 1 μg/ml Hoechst 33258 in water with 1% nonfat dry milk. After staining for 8-10 min, the cells were rinsed in water and dried completely. Nuclear morphology was visually evaluated by fluorescence microscopy.
Apoptosis is the end result of an elaborate cascade of molecular events that ultimately result in programmed cell death; thus, a variety of tests are generally used to determine whether apoptosis is occurring. The methods to study apoptosis were employed: (a) assessment of nuclear morphology; (b) PARP cleavage; and (c) caspase-3 cleavage. Serum-starved cells were transfected with antisense p21 ODN or the control ODN, fixed, stained with Hoechst 33258, and examined under UV light. MCF7 and T47D cells were grown to confluence, serum starved for 24 hours, and lipofected with antisense p21 or control ODN. The cells were subsequently serum stimulated for another 24 hours, fixed, stained with Hoechst 33258, and examined under UV light at X400.

caspase-3 = assay: Caspase-3 activity (CaspACE colorimetric assay) in MCF-7 cells; type: cell-based, human; conditions: MCF-7 cells (lack caspase-3)
Description: Caspase-3 Activity: The CaspACE Assay System was used to measure the activity of caspase-3. After incubation under appropriate conditions, the cells were lysed in CaspACE lysis buffer, and protein concentration was determined by dye reagent protein assay (Bio-Rad, Hercules, Calif.). […] The lysates with equal protein amounts were incubated with DEVD-p-nitroaniline substrate for 4 hours at 37° C. The reaction products were detected at 405 nm using a PowerWave X automated plate reader (Bio-Tek Instruments).
As another confirmatory test for antisense p21 ODN-mediated apoptosis, caspase-3 activation was assessed. Members of the caspase family of proteases are essential components of an evolutionarily conserved cell death pathway in multicellular eukaryotes and play key roles in inflammation and apoptosis in mammalian cells. Caspase-3 has substrate specificity for the amino acid sequence DEVD (Asp-Glu-Val-Asp) and is inhibited by the tetrapeptide inhibitor Ac-DEVD-CHO; its catalytic activity was assessed colorimetrically using the labeled Ac-DEVD-pNA substrate. […] T47D cells were grown to confluence, serum starved for 24 hours, and lipofected with antisense p21 or control ODN at the concentrations indicated. Caspase-3 activity was assessed as described in “Capase-3 Activity” using a colorimetric method. […]

| Substance | association of cyclin D1 and cdk 4 (cyclin D1/cdk 4) | cyclinD/cdk4 association (cyclinD/cdk4) | cyclin E/cdk 2 interaction (cyclin E/cdk 2) | [3H]thymidine incorporation (DNA incorporation) (T47D cells) | nuclear morphology (MCF7 cells) | caspase-3 cleavage (activity) (caspase-3) |
| --- | --- | --- | --- | --- | --- | --- |
| 5′-GACATCACCAGGATCGGACAT-3′ | marked decrease | no change | no change |  |  |  |
| 5′-ATC-CCC-AGC-CGG-TTC-TGA-CAT-3′ (antisense ATCCCCAGCCGGTTCTGACAT; listed as DNA, chemistry not fully specified) [antisense p21 ODN] |  |  |  | significant attenuation | nuclear morphological changes consistent with apoptosis | did not show significant caspase-3 cleavage products |
